From article PMC6812009, “Covalent Aurora A regulation by the metabolic integrator coenzyme A” (Redox Biology, 2019)

What was measured:
Assay in all cases: Kinase profiling screen (radioactive filter-binding assay)
Format in all cases: biochemical
Aurora B = Aurora B (Homo sapiens, UniProt Q96GD4); conditions: for activity at 100 µM: 100 μM compound, 20 μM ATP, read-out: Kinase activity, % of activity in the absence of inhibitor
In short: (§1)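 CoA, dpCoA and ADP were each tested in vitro, in duplicate, at 100 μM final concentration as part of a 117-kinase panel. Recombinant kinases were used with model substrates and optimal ATP concentrations.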

PAK6 = PAK6 (Homo sapiens, UniProt Q9NQU5); conditions: 100 μM compound, 20 μM ATP; read-out: Kinase activity, % of activity in the absence of inhibitor
Chain of PAK6 (Q9NQU5 whole entry): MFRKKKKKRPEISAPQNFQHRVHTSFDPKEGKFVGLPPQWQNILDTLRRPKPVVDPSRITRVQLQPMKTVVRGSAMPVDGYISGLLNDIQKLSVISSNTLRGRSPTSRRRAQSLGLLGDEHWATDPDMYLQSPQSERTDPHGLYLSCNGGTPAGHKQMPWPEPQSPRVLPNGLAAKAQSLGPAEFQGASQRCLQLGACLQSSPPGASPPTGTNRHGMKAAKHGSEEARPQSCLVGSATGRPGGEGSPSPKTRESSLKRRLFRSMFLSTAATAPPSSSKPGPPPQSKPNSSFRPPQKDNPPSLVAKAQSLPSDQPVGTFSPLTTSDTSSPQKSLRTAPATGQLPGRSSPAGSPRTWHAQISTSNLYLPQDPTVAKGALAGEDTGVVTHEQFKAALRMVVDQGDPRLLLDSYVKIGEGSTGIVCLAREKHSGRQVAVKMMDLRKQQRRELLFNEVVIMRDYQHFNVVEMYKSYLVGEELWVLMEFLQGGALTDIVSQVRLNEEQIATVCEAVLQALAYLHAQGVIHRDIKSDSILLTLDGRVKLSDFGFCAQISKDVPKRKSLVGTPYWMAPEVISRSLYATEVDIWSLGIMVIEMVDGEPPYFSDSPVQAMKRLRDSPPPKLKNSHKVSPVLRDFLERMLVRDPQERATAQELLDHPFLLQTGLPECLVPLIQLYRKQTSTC
In short: as §1

ERK8 = target: T1, ERK8 (Homo sapiens, UniProt Q8TD08); conditions: 100 μM compound, 5 μM ATP; read-out: Kinase activity, % of activity in the absence of inhibitor
T1 sequence (Q8TD08 1-544): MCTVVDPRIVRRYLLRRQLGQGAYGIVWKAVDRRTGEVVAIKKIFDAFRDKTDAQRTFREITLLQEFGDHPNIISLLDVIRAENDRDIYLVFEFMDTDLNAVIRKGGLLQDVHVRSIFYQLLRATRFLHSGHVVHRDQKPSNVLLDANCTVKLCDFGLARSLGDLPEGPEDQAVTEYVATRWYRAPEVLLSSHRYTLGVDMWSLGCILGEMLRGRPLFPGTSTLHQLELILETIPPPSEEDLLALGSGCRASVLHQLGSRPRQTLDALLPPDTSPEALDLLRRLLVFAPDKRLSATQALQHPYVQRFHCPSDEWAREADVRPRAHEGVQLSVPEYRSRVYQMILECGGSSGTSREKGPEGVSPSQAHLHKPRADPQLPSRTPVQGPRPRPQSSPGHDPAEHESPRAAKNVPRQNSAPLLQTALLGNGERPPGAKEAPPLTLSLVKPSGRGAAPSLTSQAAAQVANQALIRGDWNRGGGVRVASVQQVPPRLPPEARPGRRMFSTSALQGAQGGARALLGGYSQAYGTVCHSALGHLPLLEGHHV
In short: as §1

MSPK1 = MSPK1 (Homo sapiens, UniProt O75716); conditions: 100 μM compound, 50 μM ATP; read-out: Kinase activity, % of activity in the absence of inhibitor
Chain of MSPK1 (O75716 whole entry): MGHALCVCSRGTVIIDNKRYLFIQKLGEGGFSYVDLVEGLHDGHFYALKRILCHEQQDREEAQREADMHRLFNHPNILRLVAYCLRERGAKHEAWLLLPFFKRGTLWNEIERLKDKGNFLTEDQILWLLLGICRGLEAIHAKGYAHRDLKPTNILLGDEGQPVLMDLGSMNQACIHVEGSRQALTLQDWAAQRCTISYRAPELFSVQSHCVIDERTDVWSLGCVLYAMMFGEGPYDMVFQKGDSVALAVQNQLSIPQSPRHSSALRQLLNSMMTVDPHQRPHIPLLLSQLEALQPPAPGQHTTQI
In short: as §1

EPH-B1 = target: T2, EPH-B1 (Homo sapiens, UniProt P54762); conditions: 100 μM compound, 20 μM ATP; read-out: Kinase activity, % of activity in the absence of inhibitor
T2 sequence (P54762 18-984): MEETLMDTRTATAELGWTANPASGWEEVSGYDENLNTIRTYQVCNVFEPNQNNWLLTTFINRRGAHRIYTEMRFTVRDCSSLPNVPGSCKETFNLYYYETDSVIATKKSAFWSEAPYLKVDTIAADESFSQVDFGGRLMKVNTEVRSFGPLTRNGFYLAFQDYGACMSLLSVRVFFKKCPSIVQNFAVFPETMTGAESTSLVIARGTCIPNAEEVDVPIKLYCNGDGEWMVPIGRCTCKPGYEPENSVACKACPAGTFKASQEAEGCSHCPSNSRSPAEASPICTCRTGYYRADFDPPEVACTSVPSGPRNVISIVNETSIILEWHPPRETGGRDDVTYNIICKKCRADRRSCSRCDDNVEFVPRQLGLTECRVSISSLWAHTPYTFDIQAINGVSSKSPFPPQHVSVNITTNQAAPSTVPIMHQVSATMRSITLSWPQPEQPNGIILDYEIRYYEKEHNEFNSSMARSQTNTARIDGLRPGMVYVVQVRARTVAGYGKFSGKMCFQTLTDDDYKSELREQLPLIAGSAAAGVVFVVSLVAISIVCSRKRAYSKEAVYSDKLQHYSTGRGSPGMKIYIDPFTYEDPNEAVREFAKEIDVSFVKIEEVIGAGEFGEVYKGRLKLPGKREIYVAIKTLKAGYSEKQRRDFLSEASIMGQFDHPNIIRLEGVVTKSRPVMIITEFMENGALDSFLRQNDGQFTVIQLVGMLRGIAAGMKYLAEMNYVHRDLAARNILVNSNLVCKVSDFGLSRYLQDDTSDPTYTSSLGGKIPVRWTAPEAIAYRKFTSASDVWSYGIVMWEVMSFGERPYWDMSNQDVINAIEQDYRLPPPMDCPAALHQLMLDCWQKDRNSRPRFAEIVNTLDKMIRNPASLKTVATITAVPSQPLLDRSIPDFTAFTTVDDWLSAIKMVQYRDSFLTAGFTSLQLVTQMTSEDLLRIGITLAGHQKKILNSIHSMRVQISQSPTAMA
In short: as §1

NUAK1 = target: T3, NUAK1 (Homo sapiens, UniProt O60285); conditions: 100 μM compound, 20 μM ATP; read-out: Kinase activity, % of activity in the absence of inhibitor
T3 sequence (O60285 1-661): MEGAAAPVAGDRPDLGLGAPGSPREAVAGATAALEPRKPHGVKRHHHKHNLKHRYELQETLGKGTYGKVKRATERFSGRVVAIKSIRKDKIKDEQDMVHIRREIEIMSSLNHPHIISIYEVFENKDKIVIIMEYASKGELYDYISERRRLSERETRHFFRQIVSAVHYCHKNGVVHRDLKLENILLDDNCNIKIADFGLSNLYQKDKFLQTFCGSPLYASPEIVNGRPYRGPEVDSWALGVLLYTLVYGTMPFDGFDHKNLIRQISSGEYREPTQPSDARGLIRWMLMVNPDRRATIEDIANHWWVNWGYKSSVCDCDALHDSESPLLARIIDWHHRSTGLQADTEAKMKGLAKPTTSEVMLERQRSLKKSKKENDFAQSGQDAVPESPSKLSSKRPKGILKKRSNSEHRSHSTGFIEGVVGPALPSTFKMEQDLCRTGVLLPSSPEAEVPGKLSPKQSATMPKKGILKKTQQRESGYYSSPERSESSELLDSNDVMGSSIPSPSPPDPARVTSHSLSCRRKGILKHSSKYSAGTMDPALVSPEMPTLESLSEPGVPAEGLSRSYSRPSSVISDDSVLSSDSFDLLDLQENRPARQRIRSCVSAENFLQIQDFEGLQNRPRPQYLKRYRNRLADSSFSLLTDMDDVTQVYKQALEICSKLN
In short: as §1

HIPK3 = HIPK3 (Homo sapiens, UniProt Q9H422); conditions: 100 μM compound, 20 μM ATP; read-out: Kinase activity, % of activity in the absence of inhibitor
Chain of HIPK3 (Q9H422 whole entry): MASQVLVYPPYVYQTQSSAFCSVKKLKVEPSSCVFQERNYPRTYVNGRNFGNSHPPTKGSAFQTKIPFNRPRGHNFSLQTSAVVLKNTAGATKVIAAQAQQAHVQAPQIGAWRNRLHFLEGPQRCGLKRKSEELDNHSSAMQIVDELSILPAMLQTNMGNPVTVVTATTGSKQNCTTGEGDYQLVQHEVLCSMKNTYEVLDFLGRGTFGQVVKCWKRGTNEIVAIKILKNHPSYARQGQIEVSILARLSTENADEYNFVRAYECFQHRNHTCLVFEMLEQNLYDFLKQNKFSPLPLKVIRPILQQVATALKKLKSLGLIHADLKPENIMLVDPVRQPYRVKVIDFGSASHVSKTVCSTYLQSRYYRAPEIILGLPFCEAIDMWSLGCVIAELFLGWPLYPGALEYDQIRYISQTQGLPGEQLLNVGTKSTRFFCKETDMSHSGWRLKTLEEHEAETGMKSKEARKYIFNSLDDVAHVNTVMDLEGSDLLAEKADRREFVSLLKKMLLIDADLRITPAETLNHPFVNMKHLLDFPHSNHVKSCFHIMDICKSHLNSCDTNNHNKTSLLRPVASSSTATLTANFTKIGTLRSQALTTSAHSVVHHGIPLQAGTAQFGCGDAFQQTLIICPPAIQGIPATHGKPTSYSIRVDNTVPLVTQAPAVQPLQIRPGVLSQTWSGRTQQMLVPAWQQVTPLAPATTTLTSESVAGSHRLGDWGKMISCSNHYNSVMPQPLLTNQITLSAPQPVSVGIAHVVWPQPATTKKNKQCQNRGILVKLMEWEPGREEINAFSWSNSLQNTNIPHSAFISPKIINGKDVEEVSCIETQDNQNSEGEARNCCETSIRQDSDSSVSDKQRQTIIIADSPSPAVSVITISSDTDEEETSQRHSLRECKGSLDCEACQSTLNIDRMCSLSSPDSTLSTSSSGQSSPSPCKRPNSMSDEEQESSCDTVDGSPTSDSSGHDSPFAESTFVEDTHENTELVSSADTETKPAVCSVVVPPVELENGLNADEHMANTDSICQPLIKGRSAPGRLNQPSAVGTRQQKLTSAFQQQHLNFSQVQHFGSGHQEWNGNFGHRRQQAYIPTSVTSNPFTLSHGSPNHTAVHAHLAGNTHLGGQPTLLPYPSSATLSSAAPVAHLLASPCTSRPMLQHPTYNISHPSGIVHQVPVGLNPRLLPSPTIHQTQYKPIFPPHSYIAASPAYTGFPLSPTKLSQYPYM
In short: as §1

Chain of Aurora B (Q96GD4 whole entry): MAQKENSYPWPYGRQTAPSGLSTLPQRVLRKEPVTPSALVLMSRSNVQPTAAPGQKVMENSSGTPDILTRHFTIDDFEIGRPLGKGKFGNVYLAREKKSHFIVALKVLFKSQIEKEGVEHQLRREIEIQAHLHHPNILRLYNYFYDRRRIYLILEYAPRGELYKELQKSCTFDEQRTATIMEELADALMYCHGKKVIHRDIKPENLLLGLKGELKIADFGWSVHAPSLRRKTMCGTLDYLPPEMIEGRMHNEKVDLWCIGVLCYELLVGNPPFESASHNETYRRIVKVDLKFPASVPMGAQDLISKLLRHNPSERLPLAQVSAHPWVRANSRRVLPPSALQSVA

| SMILES | activity at 100 µM (Aurora B) [%] | inhibition at 100 µM (Aurora B; at 100 μM compound) [%] | activity at 100 µM (PAK6) [%] | activity at 100 µM (ERK8) [%] | activity at 100 µM (MSPK1) [%] | activity at 100 µM (EPH-B1) [%] | activity at 100 µM (NUAK1) [%] | activity at 100 µM (HIPK3) [%] |
| --- | --- | --- | --- | --- | --- | --- | --- | --- |
| CC(C)(COP(=O)(O)OP(=O)(O)OC[C@H]1O[C@@H](n2cnc3c(N)ncnc32)[C@H](O)[C@@H]1OP(=O)(O)O)[C@@H](O)C(=O)NCCC(=O)NCCS [CoA, Coenzyme A] | 54.3 | 46 | 98.4 | 101 | 102 | 117 | 98.3 | 123 |
| CC(C)(COP(=O)(O)OP(=O)(O)OCC1OC(n2cnc3c(N)ncnc32)C(O)C1O)C(O)C(=O)NCCC(=O)NCCS (stereo not shown) [dpCoA, dephospho-CoA] | 55.1 | – | 101 | 38.5 | 102 | 80 | 68.3 | 91.5 |
| Nc1ncnc2c1ncn2C1OC(COP(=O)(O)OP(=O)(O)O)C(O)C1O (stereo not shown) [ADP] | 47.8 | – | 78.4 | 16.6 | 94.1 | 11.6 | 32.4 | 34.2 |
